# Patent publication US11129801B2 (SigmaThera SAS, priority 2016, dated 2021)
# What was measured:
# GFAP = assay: ELISA of cortical GFAP, Aβ25-35 mouse model; assay type: in vivo; conditions: Experiment 2, post-treatment, 1 mg/kg
# Protocol: (§1) In Experiment 2, twelve mice per experimental group were administered Sc.Aβ or Aβ25-35-amyloid peptide on day 0 by i.c.v. injection. […] Animals were tested at day 7 and later.
# (§2) For each of Experiments 1-4, on day 7, all animals were tested for the spontaneous alternation performance in the Y-maze test, an index of spatial working memory. On day 8 and 9, the contextual long-term memory of the animals was assessed using the step-through type passive avoidance procedure. On day 9, immediately after the retention session, animals were sacrificed by decapitation and the hippocampus and cortex dissected out. Lipid peroxidation was analyzed in the hippocampus, whereas neuroinflammation, apoptosis, amyloid burden and hyperphosphorylation of tau protein were analyzed in cortex.
# (§3) Enzyme-linked immunosorbant assay (ELISA) assays: Contents in GFAP, Caspase 12, Amyloid-beta 1-40, Amyloid-beta 1-42, Total Tau, and pTau on Ser199 were analyzed by using commercial ELISA assay kit. • GFAP: Supplier: USCNK #Ref: SEA068Mu • Total Tau: Supplier: Novex #Ref: KMB7011 • pTau (S199): Supplier: Novex #Ref: KMB7041 • Amyloid beta 1-40: Supplier: Novex #Ref: KMB3481 • Amyloid beta 1-42: Supplier: Novex #Ref: KMB3441 • Caspase-12: Supplier: LSBio #Ref: LS-F11023 • BAX: Supplier: Euromedex#Ref: SEB343Mu • BCL2: Supplier: Euromedex #Ref: SEA778Mu […]
# caspase 12 = assay: ELISA of cortical caspase 12, Aβ25-35 mouse model; assay type: in vivo; conditions: Experiment 2, post-treatment, 1 mg/kg
# Protocol: as §1, §2, §3
# Aβ1-42 = assay: ELISA of cortical Aβ1-42, Aβ25-35 mouse model; assay type: in vivo; conditions: Experiment 2, post-treatment
# Protocol: as §1, §2, §3
# [1] = tested on: sigma-1 receptor / BiP complex; assay: Dissociation of BiP from sigma-1 receptor in CHO cells; assay type: cell-based; conditions: 1 μM and 10 μM, 30 min
# Protocol: CHO cells were grown in a 6-well plates and treated with the compounds in culture medium at 37° C. for 30 min at 1 μM and 10 μM final concentration. The reaction was stopped by medium removal and adding 3 mL PBS at 37° C. CHO cells were harvested and suspended in 50 mM HEPES (pH7.4) followed by cross-linking with 50 μg/ml of dithio (bis) succinimidyl propionate (Thermo Fisher Scientific, Waltham, Mass.) for 30 min at 4° C. The reaction was stopped by adding Tris-HCl (pH 8.8, final 50 mM). Fifteen minutes after incubation on ice, cells were lysed with RIPA buffer [50 mM Tris (pH7.4), 150 mM NaCl, 1% Triton X-100, 0.3% sodium deoxycholate, 0.1% SDS, protease inhibitor cocktail (Roche Complete)]. After centrifugation at 12,000 g, 1 min, the supernatant was incubated overnight at 4° C. with Sig-1R antibody (Abcam). The cell lysate was incubated with Sepharose protein-A (Invitrogen) for 90 min. After centrifugation at 12,000 g, 1 min, the supernatant was discarded and the pellet was washed in 0.5 mL RIPA buffer. After a second centrifugation at 12,000 g, 20 min, the supernatant was discarded and the pellet was washed in 0.5 mL 2× Sample buffer/bMCE buffer. Following a third centrifugation at 12,000 g, 1 min, the supernatant was analysed by ELISA assay, according to the manufacturer's protocol (USCNK #SEC343Mu).
structure (smiles),measurement,setting,value
"CCC(C/C=C/c1ccccc1)(c1ccccc1)N(C)CC1CC1 (single isomer, unassigned; (+)) [igmesine, (+)-(E)-N-(cyclopropylmethyl)-N-methyl-3,6-diphenylhex-5-en-3-amine]",cortical GFAP elevation,GFAP,fully normalized
same,cortical caspase 12 elevation,caspase 12,fully normalized
same,cortical Aβ1-42 elevation,Aβ1-42,fully normalized
same,dissociation of BiP from sigma-1 receptor,[1],produced the dissociation of BiP from sigma-1 receptor in a dose-dependent manner
